The target of this test is T1, 5-HT3 receptors (Oryctolagus cuniculus, UniProt A0A5F9C9J3).
T1 construct: 5-HT3 receptors present on sympathetic nerve terminals in the heart; from tissue; host or cells: isolated right atrium of the rabbit heart
T1 sequence (A0A5F9C9J3 1-494): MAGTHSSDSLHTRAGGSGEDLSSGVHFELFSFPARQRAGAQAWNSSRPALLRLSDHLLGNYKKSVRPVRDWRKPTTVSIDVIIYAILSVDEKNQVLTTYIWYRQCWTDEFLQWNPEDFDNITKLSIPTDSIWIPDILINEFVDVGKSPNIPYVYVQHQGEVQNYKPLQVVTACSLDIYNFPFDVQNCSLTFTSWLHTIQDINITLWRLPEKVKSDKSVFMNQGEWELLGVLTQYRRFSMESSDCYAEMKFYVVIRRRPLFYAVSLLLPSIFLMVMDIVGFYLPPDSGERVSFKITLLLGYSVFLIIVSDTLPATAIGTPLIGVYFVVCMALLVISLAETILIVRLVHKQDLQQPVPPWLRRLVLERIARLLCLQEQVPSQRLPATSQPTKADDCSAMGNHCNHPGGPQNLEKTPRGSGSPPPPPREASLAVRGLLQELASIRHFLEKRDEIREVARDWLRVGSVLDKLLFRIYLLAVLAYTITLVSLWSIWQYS
The test can be described thus: 5-HT3 antagonistic activity in the isolated right atrium of the rabbit heart. The conditions noted are these: chronotropic response to 10^-5 M 5-HT, read-out: -log IC50 (IC50 is the concentration of antagonist which reduces the chronotropic response to 10^-5 M 5-HT by 50%) (converted). Here is the method: The compounds of the invention are tested for 5-HT3 antagonistic activity in the isolated right atrium of the rabbit heart based upon the method of Fozard J. R., Naunyn Schmiedeberg's Arch. Pharmacol., 1984, 326, 36-44. This procedure relies upon the ability of 5-HT to stimulate 5-HT3 receptors present on sympathetic nerve terminals in the heart, causing release of noradrenaline which evokes an increase in the spontaneous rate of beating. The antagonist potency is expressed as -log IC50 (where IC50 is the concentration of antagonist which reduces the chronotropic response to 10^--5 M 5-HT by 50%).

The structures appear in SMILES notation.

Regarding `CN(C)C1CCCN(C(=O)c2c[nH]c3ccccc23)C1` (centres unmarked) [Example 1, 3-Dimethylamino-1-[[(1H)-indol 3 yl]carbonyl]piperidine], the IC50 was 20 nM.
As to `CN(C)C1CCCN(C(=O)c2n[nH]c3ccccc23)C1` (centres unmarked) [Example 4, 3-Dimethylamino-1-[[(1H)-indazol 3 yl]carbonyl]piperidine], the IC50 was 7.94 nM.
